Patent US20070105114A1, “Biomarkers of cyclin-dependent kinase modulation” (priority 2003, published 2007)
Where a name gives a salt, the structure may show the parent alone. Read-outs that look alike come from different tables or passages of the source.

Columns and labels:
W28729 [1] = experiment: Clinical study CA174-001 (1 hr infusion), W28729 expression in patient PBMC by RT-PCR; format: in vivo, human; settings: patients
Protocol: (§1) Patient inclusion criteria: The patient inclusion criteria included: primary solid malignancy refractory to current therapy and adequate bone marrow, hepatic, and renal function. Treatments: Two different treatments were undertaken: (i) 174-001 Study: 1 hr infusion of BMS-387032 q 3 wks; and (ii) 174-002 Study: 24 hr infusion of BMS-387032 q 3 wks. The sampling times were pre-dose, and 2, 6, 24 hour post-dose. W28729 Expression Analysis: RT-PCR. Patient blood samples were collected in PAXgene™ Blood Collection Tubes (Qiagen, catalog #762155). Total RNA was isolated following the manufacturer's instructions using a PAXgene™ blood RNA Kit (Qiagen, catalog #762134). W28729 and GAPDH (housekeeping gene) RNA abundance was measured by Taqman assays, using an ABI PRISM 7900 HT Sequence Detection System. W28729 abundance was normalized relative to GAPDH. Primer and probe sequences are as shown below.

W28729 [2] = experiment: Clinical study CA174-002 (24 hr infusion), W28729 expression in patient PBMC by RT-PCR; format: in vivo, human; settings: patients
Protocol: as §1

W28729 [3] = experiment: W28729 expression by real-time quantitative PCR in PBMC treated in vitro; format: cell-based; settings: human PBMC in vitro, 10n-M, 4 hours
Protocol: Taqman® reactions were prepared as follows: 100 ng total RNA; 25 nM-750 nM Forward Primer; 25 nM-750 nM Reverse Primer; 200 nM-400 nM Taqman® Probe (fluorescent dye labeled oligonucleotide primer); 1X Buffer A (Applied Biosystems, Foster City, Calif., USA); 5.5 mM MgCl2; 300 μM DATP, dGTP, dTTP, dCTP; 1 U Amplitaq Gold; 20 U Superscript 2; 1 U RNase Inhibitor. Real-time PCR was performed using an Applied Biosystems 7700 Sequence Detection System. Conditions were as follows: 48° C. for 20 minutes (reverse transcription), 95° C. for 10 minutes (denaturation and activation of Amplitaq Gold), 40 cycles of PCR (95° C. for 15 seconds, 60° C. for 1 minutes).
The Sequence Detection System generates a Ct (threshold cycle) value that is used to calculate a concentration for each input messenger RNA template. Messenger RNA levels for each gene or fragment thereof of interest were normalized to GAPDH message levels to compensate for variations in total RNA quantity in the input sample. This was done by generating GAPDH Ct values for each cell line. Ct values for the gene or fragments thereof of interest and GAPDH were inserted into the δδCt equation: Relative Quantity of Nucleic Acid Template=2^δδCt=2^(δCta-δCtb)(δCta=Ct target−Ct GAPDH, δCtb=Ct reference−Ct GAPDH) which was used to calculate a normalized relative message level. […]

[4] = test system: A2780 ovarian carcinoma cells; experiment: Clonogenic growth assay (colony formation); format: cell-based, human; settings: for IC50 / IC90: Homo sapiens, A2780, A2780s Clonogenic assay; for IC50: read-out: IC50, inhibition of colony formation; for IC90: read-out: IC90, inhibition of colony formation
Protocol: Clonogenic Growth Assay: The colony growth inhibition was measured for the A2780 ovarian carcinoma cells using a standard clonogenic assay. In this assay, 200 cells/well were seeded into 6-well tissue culture plates (Falcon™) (Becton, Dickinson and Company, Franklin Lakes, N.J., USA) and allowed to attach for 18 hours. Assay medium consisted of RPMI-1640 plus 10% fetal bovine serum. Cells were then treated in duplicate with a six concentration dose-response curve. The maximum concentration of DMSO never exceeded 0.25%. Cells were exposed to the cdk2 inhibitor for 4, 8, or 24 hours. The cdk2 inhibitor was then removed and the cells were washed with 2 volumes of PBS. The normal growth medium was then replaced. Colonies were fed with fresh media every third day. Colony number was scored on day 10-14 using a Optimax imaging station. The cdk2 inhibitor concentration required to inhibit 50% or 90% of colony formation (IC50 or IC90, respectively) was determined by non-linear regression analysis. The coefficient of variance (standard deviation/mean, n=3)=30%. Treatment of A2780 and PBMC was carried out as described above. The doses of the cdk2 inhibitor were derived from an understanding of the kinetics of tumor cell growth inhibition by the cdk2 inhibitor as assessed by proliferation and clonogenic assays (Table 3). […] A minimal exposure of 8 hours was required for effective inhibition of colony formation. The values obtained from the 24 hour clonogenic assay were in good agreement with the 72 hour proliferation assay.

- IC50 ([4]; 4 hr. exposure): 302 nM
- IC90 ([4]; 4 hr. exposure): > 1000 nM
- IC50 ([4]; 8 hr. exposure): 154 nM
- IC90 ([4]; 8 hr. exposure): 303 nM
- IC50 ([4]; 24 hr. exposure): 166 nM
- IC90 ([4]; 24 hr. exposure): 208 nM
SMILES: CC(C)(C)c1cnc(CSc2cnc(NC(=O)C3CCNCC3)s2)o1 [cdk2 inhibitor, N-5-[[5-(1,1-Dimethylethyl)-2-oxazolyl]methyl]thio]-2-thiazolyl-4-piperidinecarboxamide, 0.5-L-tartaric acid salt]
- time of return of W28729 to baseline levels (W28729 [1]; 1 hour infusion): ≤ 6 h
- W28729 induction in PBMC (W28729 [1]; 1 hour infusion, at 2 hours): transient induction of W28729
- relationship between W28729 gene induction and dose or exposure (AUC) (W28729 [1]; CA174-001): linear relationship
- W28729 induction in PBMC (W28729 [2]): modest induction of W28729 expression
- time W28729 induction was sustained following end of infusion (W28729 [2]): 6 h
- W28729 expression change (W28729 [3]): Upregulation of W28729 expression
- minimal exposure required for effective inhibition of colony formation ([4]; A2780s): 8 h
- growth inhibition, dependence on exposure time ([4]; A2780s, proliferation and clonogenic assays): time dependent
